Patent US8119614B2, “Substitution derivatives of N6-benzyladenosine, methods of their preparation, their use for preparation of drugs, cosmetic preparations and growth regulators, pharmaceutical preparations, cosmetic preparations and growth regulators containing these compounds” (Ustav Experimentalni Botaniky Akademie Ved Ceske Republiky, priority 2002, dated 2012)

Legend:
[1] = system: human diploid fibroblasts (HCA cells); experiment: Inhibition of senescence of mammal cells: β-galactosidase staining of senescent cells; type: cell-based; details: for Senescent cells (%) HCA25: passage 25; for Senescent cells (%) HCA45: passage 45; for Senescent cells (%) HCA80: passage 80
Experimental: In this example, human diploid fibroblasts (HCA cells with different levels of passage: passage 25—labelling HCA25; passage 45—labelling HCA45; passage 80—labelling HCA80) were used for studying β-galactosidase activity. Medium used for cells cultivation was removed, cells were washed twice with PBS and fixed in 2-3 ml of fixation agent consisting of 2% of formaldehyde and 0.2% of flutaraldehyde in PBS. Cells were incubated at room temperature for 5 min and subsequently washed twice with PBS. Cells were then incubated at 37° C. (without CO2) for 1 to 16 hours in 2-3 ml of solution comprising potassium ferricyanide (5 mM), potassium ferrocyanide (5 mM), MgCl2 (2 mM), X-gal (5-bromo-4-chloro-3-indolyl-β-D-galactopyranoside) (1 mg/ml) in citrate/phosphate buffer, pH 6.0. […] In this experiment only senescent cells were labelled due to the effect of β-galactosidase on the substrate.

[2] = system: human malignant melanoma cells G361; experiment: In vitro cytotoxic activity, Calcein AM assay, G-361; type: cell-based; details: 72 hours, read-out: IC 50 G-361
In short: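 10^4 cells/well, 24 h stabilisation; cpd 6 × 4-fold dilutions, top 166.7 μM, duplicates, 72 h, 37 °C, 5% CO2; Calcein AM 1 h, fluorescence vs untreated controls; GI50 from curve.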

HL-60 cells [3] = experiment: Induction of apoptosis in HL-60 cells (nuclear morphology, DNA fragmentation); type: cell-based, human; details: 24 h (FIG. 5-7)
Experimental: (§1) Cell culture. A suspension of human promyelocytic HL-60 cells was cultured in RPMI-1640 medium supplemented with a 10% calf foetal serum and antibiotics in 5% CO2 atmosphere at 37° C. Cells were maintained at density from 1×10^5 to 6×10^5 cells per ml. HL-60 cells were obtained from ECACC.
Morphological analysis of cell nuclei. Cells were harvested, washed in PBS, and fixed in an ice-cold methanol+acetic acid (3:1) fixation mixture. Aliquots of cells were spread on glass slides and stained with Hoechst 33342 (2 μg/ml) in PBS. The morphology of cell nuclei was examined by a fluorescence microscope (Mlejnek and Kuglik 2000).
DNA fragmentation assay. Aliquots of cells were washed in PBS and lysed by addition of DNA lysis buffer (50 mM Tris/HCl, pH=8.0, 10 mM EDTA, 0.5% sodium lauroyl sarcosine, and 0.5 mg/ml proteinase K) at 37° C. overnight. Samples were treated further with DNase-free RNase-A (0.2 mg/ml) at 37° C. for 3 h. The resulting extracts were loaded onto 1.8% agarose gel containing ethidium bromide (Mlejnek and Kuglik 2000).

HL-60 cells [4] = experiment: Cell cycle analysis (flow cytometry); type: cell-based, human; details: 5 μM, 24 h (FIG. 8)
Experimental: as §1
Cell cycle analysis. Cells were washed in PBS and then fixed in 70% ethanol at −20° C. over night. Fixed cells are washed in PBS and stained in PBS containing PI (20 μg/ml) and RNase A (100 μg/ml) for 30 min at 37° C. prior to FACScan analysis (Mlejnek and Kolman 1999).

Rosa multiflora = experiment: In vitro and post vitro multiplication and rooting of rose; type: in vivo; details: for Root number per plant / Total root length per plant (cm): Ex vitro, after four weeks of acclimatising; for Flower number per explant / Number of new shoots per explant / Root number per explant / Total root length per explant (cm): In vitro, 10 μM, 8 weeks
[5] = system: spring wheat (variety Sandra); experiment: Field studies: yield analysis of spring wheat crop; type: in vivo; details: spray of 10^−6 molar solution, Control = 100.0
Experimental: Crops (over the 4-year period) of spring wheat were sown in the experimental fields of Czech Agriculture University (CZU) (region of sugar beet production type) at a seeding rate of 400 germinative grains·m^−2 into ploughed and shoddy soil containing 116.1 mg/kg P, 228.3 mg/kg K, and 211.8 mg/kg Mg (agrochemical analyses were done at Department of Pedology CZU) (interval between ploughing and sowing is usually 3-4 days, longer only in case of adverse weather conditions). Preceding crop was rape. Soil preparation was done by the classical way using skid and harrow and after seeding is rolled.
Height of plants, leaf area, dry matter, development of vegetation opex—bases of future spike, and number of spikelets were monitored after germination in 14 day intervals, […]. From these primary data, values used in production physiology are derived, as leaf area index LAI, photosynthetic capacity LAD, tillering potential. Experiments with treatment of spring wheat crop (variety Sandra) are carried out on the field (area 10 m^2, four replicates) by spraying 1 litr of 10^−6 molar solution of tested compound (cytokinin) at the transition period from jointing stage to athesis stage (49 DC).
Yield analysis, evaluating spike lenght and seed number per spikelet (Σ Z/K) were carried out for 30 plant per each variant, yield from 1 m^2 and 1000 grain weight (HTS) was determined from 8 replicates, yield per ha was subsequently calculated.

| SMILES | Senescent cells (%) HCA25 [1] [%] | Senescent cells (%) HCA45 [1] [%] | Senescent cells (%) HCA80 [1] [%] | IC50 [2] [µM] | HTS (%) (1000 grain weight) [5] | Yield(%) [5] [%] | Σ Z/K (%) (seed number per spikelet) [5] | Σ spike/m^2 (%) [5] [%] | further results |
| --- | --- | --- | --- | --- | --- | --- | --- | --- | --- |
| OC[C@H]1O[C@@H](n2cnc3c(NCc4ccccc4F)ncnc32)[C@H](O)[C@@H]1O [2-fluorobenzylamino, 6-(2-fluorobenzylamino)purine riboside] | 4 | 4 | 15 |  |  |  |  |  |  |
| COc1cccc(CNc2ncnc3c2ncn3[C@@H]2O[C@H](CO)[C@@H](O)[C@H]2O)c1O [2-hydroxy-3-methoxybenzylamino, 6-(2-hydroxy-3-methoxybenzylamino)purine riboside] |  |  |  | 148 |  |  |  |  | induction of HL-60 cell death / apoptosis (HL-60 cells [3]): induce HL-60 cell death, with typical morphological and biochemical characteristics of apoptosis; effect on cell cycle (HL-60 cells [4]): does not inhibit cell cycle in certain control point(s), but rather unspecifically |
| COc1ccccc1CNc1ncnc2c1ncn2[C@@H]1O[C@H](CO)[C@@H](O)[C@H]1O [2-methoxybenzylamino, 6-(2-methoxybenzylamino)purine riboside] | 4 | 4 | 16 | > 167 |  |  |  |  | Root number per plant (Rosa multiflora): 1.6; Total root length per plant (cm) (Rosa multiflora): 4.8 cm; Flower number per explant (Rosa multiflora): 0.17; Number of new shoots per explant (Rosa multiflora): 1.4; Root number per explant (Rosa multiflora): 0.0; Total root length per explant (cm) (Rosa multiflora): 0.0 cm |
| OC[C@H]1O[C@@H](n2cnc3c(NCc4ccc(Cl)c(Cl)c4)ncnc32)[C@H](O)[C@@H]1O [3,4-dichlorobenzylamino, 6-(3,4-dichlorobenzylamino)purine riboside] |  |  |  |  | 101.5 | 113.3 | 111.9 | 99.7 |  |
| OC[C@H]1O[C@@H](n2cnc3c(NCc4cccc(Br)c4)ncnc32)[C@H](O)[C@@H]1O [3-bromobenzylamino, 6-(3-bromobenzylamino)purine riboside] |  |  |  |  | 101.5 | 131.8 | 123.8 | 104.9 |  |
| OC[C@H]1O[C@@H](n2cnc3c(NCc4cccc(Cl)c4)ncnc32)[C@H](O)[C@@H]1O [3-chlorobenzylamino, 6-(3-chlorobenzylamino)purine riboside] |  |  |  |  | 108.3 | 128.8 | 119.1 | 100.5 |  |
| OC[C@H]1O[C@@H](n2cnc3c(NCc4cccc(F)c4)ncnc32)[C@H](O)[C@@H]1O [3-fluorobenzylamino, 6-(3-fluorobenzylamino)purine riboside] | 3 | 5 | 13 | 15.7 |  |  |  |  |  |
| COc1cccc(CNc2ncnc3c2ncn3[C@@H]2O[C@H](CO)[C@@H](O)[C@H]2O)c1 [3-methoxybenzylamino, 6-(3-methoxybenzylamino)purine riboside] | 5 | 6 | 12 | > 167 |  |  |  |  | Root number per plant (Rosa multiflora): 1.4; Total root length per plant (cm) (Rosa multiflora): 3.5 cm; Flower number per explant (Rosa multiflora): 0.00; Number of new shoots per explant (Rosa multiflora): 5.6; Root number per explant (Rosa multiflora): 0.0; Total root length per explant (cm) (Rosa multiflora): 0.0 cm |
